Values joined by “and” are separate entries in the source; they are usually repeats but may differ in a detail not shown here. Identical values can stand only once. Like-named read-outs stand apart in the source and are kept apart here.
System: M. mycetomatis genome strain MM55
Test: CLSI M38-A2 based in vitro susceptibility screening (XTT or resazurin), growth at fixed concentration
Format: cell-based, Madurella mycetomatis
Details: for activity at 25 µM / activity at 100 µM / Percent fungal survival at 100 µM: Madurella mycetomatis; for Percent fungal survival at 100 µM: replicate 2, M. mycetomatis MM55, read-out: Percentage survival at 100um, 100 uM A (second replicate column)
[1] = 25 uM, mean, read-out: Percentage survival at 25um, 25 uM mean
[2] = 25 uM, replicate A, read-out: Percentage survival at 25um, 25 um A
[3] = 25 uM, replicate B, read-out: Percentage survival at 25um, 25 uM B
[4] = 25 uM, replicate C, read-out: Percentage survival at 25um, 25 uM C
[5] = 100 uM, mean, read-out: Percentage survival at 100um, 100 uM mean
[6] = 100 uM, replicate (first column), read-out: Percentage survival at 100um, 100 uM A
[7] = 100 uM, replicate (second column), read-out: Percentage survival at 100um, 100 uM A
[8] = 100 uM, replicate (third column), read-out: Percentage survival at 100um, 100 uM A
[9] = 25 uM, mean of three, M. mycetomatis MM55, read-out: Percentage survival at 25um, 25 uM mean
[10] = 25 uM, replicate A, M. mycetomatis MM55, read-out: Percentage survival at 25um, 25 um A
[11] = 25 uM, replicate B, M. mycetomatis MM55, read-out: Percentage survival at 25um, 25 uM B
[12] = 25 uM, replicate C, M. mycetomatis MM55, read-out: Percentage survival at 25um, 25 uM C
[13] = 100 uM, mean of three, M. mycetomatis MM55, read-out: Percentage survival at 100um, 100 uM mean
[14] = 100 uM, replicate 1, M. mycetomatis MM55, read-out: Percentage survival at 100um, 100 uM A (first replicate column)
[15] = 100 uM, replicate 3, M. mycetomatis MM55, read-out: Percentage survival at 100um, 100 uM A (third replicate column)
[16] = read-out: Percentage survival at 25um, 25 uM B
[17] = read-out: Percentage survival at 25um, 25 uM C
[18] = read-out: Percentage survival at 25um, 25 uM mean

SMILES: CCNC(=O)Nc1cc(-c2ccccc2)c(-c2cncc(C(=O)O)c2)cn1 [MMV1593534]
- activity at 25 µM [1]: 85.6%
- activity at 25 µM [2]: 94.2%
- activity at 25 µM [3]: 90.1%
- activity at 25 µM [4]: 72.5%
- activity at 100 µM [5]: 53.4%
- activity at 100 µM [6]: 4.59%
- activity at 100 µM [7]: 76.9%
- activity at 100 µM [8]: 78.8%

SMILES: CCCCCCC1c2ccc(O)cc2Oc2cc(O)ccc21 [MMV1593535]
- activity at 25 µM [1]: 72.3%
- activity at 25 µM [2]: 72.8%
- activity at 25 µM [3]: 89.7%
- activity at 25 µM [4]: 54.6%
- activity at 100 µM [5]: 21.5%
- activity at 100 µM [6]: 10.9%
- activity at 100 µM [7]: 14.4%
- activity at 100 µM [8]: 39.1%

SMILES: Fc1ccc(-c2nc(-c3c[nH]c4ccc(Br)cc34)[nH]c2-c2ccc(F)cc2)cc1 [MMV1593537]
- activity at 25 µM [9]: 61.4%
- activity at 25 µM [10]: 38%
- activity at 25 µM [11]: 20.2%
- activity at 25 µM [12]: 126%
- activity at 100 µM [13]: 3.84%
- activity at 100 µM [14]: 4.18%
- Percent fungal survival at 100 µM (100 uM): 1.82%
- activity at 100 µM [15]: 5.52%

SMILES: NC1(C(=O)O)CCP(=O)(O)CC1 (stereo not drawn) [MMV1593538]
- activity at 25 µM [2]: 56.1%
- activity at 100 µM (100 uM, mean of replicates, read-out: Percentage survival at 100um, 100 uM mean): 65.8%
- activity at 100 µM (100 uM, replicate 1, read-out: Percentage survival at 100um, 100 uM A): 72.6%
- activity at 100 µM (100 uM, replicate 2, read-out: Percentage survival at 100um, 100 uM A): 66.4%
- activity at 100 µM (100 uM, replicate 3, read-out: Percentage survival at 100um, 100 uM A): 58.5%
- activity at 25 µM [16]: 68.9%
- activity at 25 µM [17]: 67%
- activity at 25 µM [18]: 64%

SMILES: COc1ccc2cc3[n+](cc2c1OCCN(CCn1cncn1)Cc1ccc(F)cc1F)CCc1cc2c(cc1-3)OCO2 [MMV1593540]
- activity at 25 µM [9]: 87.6%
- activity at 25 µM [10]: 96.5%
- activity at 25 µM [11]: 90.9%
- activity at 25 µM [12]: 75.5%
- activity at 100 µM [13]: 84.2%
- activity at 100 µM [14]: 80.5%
- Percent fungal survival at 100 µM (100 uM): 83.8%
- activity at 100 µM [15]: 88.4%

SMILES: Nc1nc(Nc2ccc3nc(-c4ccc(F)cc4)cc(N)c3c2)cc(-c2ccccc2)n1 [MMV1593541]
- activity at 25 µM [9]: 65.8%
- activity at 25 µM [10]: 82.5%
- activity at 25 µM [11]: 80.3%
- activity at 25 µM [12]: 34.5%
- activity at 100 µM [13]: 2.33%
- activity at 100 µM [14]: 5.55%
- Percent fungal survival at 100 µM (100 uM): 5.6%
- activity at 100 µM [15]: -4.16%

SMILES: OCCCCn1cnc2c(O)nc(NCc3ccc(Cl)c(Cl)c3)nc21 [MMV1593542]
- activity at 25 µM [9]: 73.1%
- activity at 25 µM [10]: 73.4%
- activity at 25 µM [11]: 73.3%
- activity at 25 µM [12]: 72.6%
- activity at 100 µM [13]: 74.4%
- activity at 100 µM [14]: 82.6%
- Percent fungal survival at 100 µM (100 uM): 70.6%
- activity at 100 µM [15]: 70.1%

SMILES: COc1cc(C(C(=O)NC2CCCCC2)N(C(=O)Cc2c[nH]c3ccccc23)c2ccc(C(C)C)cc2)cc(OC)c1OC (stereo not drawn) [MMV1593544]
- activity at 25 µM (25 uM, mean of replicates, MM55, read-out: Percentage survival at 25um, 25 uM mean): 98.2%
- activity at 25 µM (25 uM, replicate A, MM55, read-out: Percentage survival at 25um, 25 um A): 107%
- activity at 25 µM (25 uM, replicate B, MM55, read-out: Percentage survival at 25um, 25 uM B): 106%
- activity at 25 µM (25 uM, replicate C, MM55, read-out: Percentage survival at 25um, 25 uM C): 81.3%
- activity at 100 µM (100 uM, mean of replicates, MM55, read-out: Percentage survival at 100um, 100 uM mean): 88.5%
- activity at 100 µM (100 uM, replicate 1, MM55, read-out: Percentage survival at 100um, 100 uM A): 98%
- activity at 100 µM (100 uM, replicate 2, MM55, read-out: Percentage survival at 100um, 100 uM A): 88.7%
- activity at 100 µM (100 uM, replicate 3, MM55, read-out: Percentage survival at 100um, 100 uM A): 78.7%

SMILES: CC1(C)C[C@H]1C(=O)N/C(=C\CCCCSC[C@@H](N)C(=O)O)C(=O)O [MMV1613559]
- Percentage survival at 100um, 100 uM A: 93.1771% and 127.204% and 75.2981%
- activity at 25 µM [16]: 95.4%
- activity at 25 µM [17]: 77.8%
- activity at 25 µM [18]: 92.2%
- activity at 25 µM (read-out: Percentage survival at 25um, 25 um A): 103%
- activity at 100 µM (read-out: Percentage survival at 100um, 100 uM mean): 98.6%

SMILES: NC(=O)[C@@H]1CC[C@@H]2CN1C(=O)N2OS(=O)(=O)O [MMV1613560]
- activity at 25 µM [9]: 88.8%
- activity at 25 µM [10]: 94.4%
- activity at 25 µM [11]: 88.3%
- activity at 25 µM [12]: 83.7%
- activity at 100 µM [13]: 85.1%
- activity at 100 µM [14]: 93.4%
- Percent fungal survival at 100 µM (100 uM): 67.9%
- activity at 100 µM [15]: 94.1%
